Reference: patent US20230117034A1, “PYRAZOLOTRIAZINES” (Bayer Aktiengesellschaft, priority 2019, published 2023)
One block for each molecule: values may come before it.

Experiments:
[1] = tested on: BRCA1 mRNA expression in MDA-MB-231 cells; test: qRT-PCR assay: BRCA1 mRNA expression in MDA-MB-231; assay type: cell-based, human; settings: Homo sapiens, MDA-MB-231, Inhibition of BRCA1 mRNA expression in MDA-MB-231 cells; median; read-out: RTqPCR-MDA-MB-231, IC50, BRCA1 (median)
In short: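 BRCA1 transcript by RT-qPCR relative to GAPDH, from 600 ng RNA converted to cDNA. MDA-MB-231 cells plated at 200,000/well received test compound continuously for 24 h, starting 24 h post-seeding.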

CDK9/CycT1 = biological target: T1, CDK9/CycT1 (Homo sapiens, UniProt P50750); test: CDK9/CycT1 high ATP kinase assay (TR-FRET, 2 mM ATP); assay type: biochemical; settings: 2 mM ATP (high ATP); median; read-out: CDK9/CyclinT1, 2 mM ATP (high ATP), IC50 (median)
T1 construct: Recombinant full-length His-tagged human CDK9 and CycT1; purchased Life Technologies PV4131; host or cells: insect cells
T1 sequence (P50750 whole entry): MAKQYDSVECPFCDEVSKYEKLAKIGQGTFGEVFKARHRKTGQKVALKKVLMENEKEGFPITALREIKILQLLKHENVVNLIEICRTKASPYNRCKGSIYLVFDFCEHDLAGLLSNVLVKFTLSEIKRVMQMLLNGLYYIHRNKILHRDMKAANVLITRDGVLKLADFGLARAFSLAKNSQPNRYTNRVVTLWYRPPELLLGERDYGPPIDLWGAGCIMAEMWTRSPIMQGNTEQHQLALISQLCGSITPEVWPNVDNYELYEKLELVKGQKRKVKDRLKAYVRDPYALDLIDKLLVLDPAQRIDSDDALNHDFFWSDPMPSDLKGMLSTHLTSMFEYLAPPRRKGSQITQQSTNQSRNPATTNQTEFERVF
T1 sequence (O60563 whole entry partner): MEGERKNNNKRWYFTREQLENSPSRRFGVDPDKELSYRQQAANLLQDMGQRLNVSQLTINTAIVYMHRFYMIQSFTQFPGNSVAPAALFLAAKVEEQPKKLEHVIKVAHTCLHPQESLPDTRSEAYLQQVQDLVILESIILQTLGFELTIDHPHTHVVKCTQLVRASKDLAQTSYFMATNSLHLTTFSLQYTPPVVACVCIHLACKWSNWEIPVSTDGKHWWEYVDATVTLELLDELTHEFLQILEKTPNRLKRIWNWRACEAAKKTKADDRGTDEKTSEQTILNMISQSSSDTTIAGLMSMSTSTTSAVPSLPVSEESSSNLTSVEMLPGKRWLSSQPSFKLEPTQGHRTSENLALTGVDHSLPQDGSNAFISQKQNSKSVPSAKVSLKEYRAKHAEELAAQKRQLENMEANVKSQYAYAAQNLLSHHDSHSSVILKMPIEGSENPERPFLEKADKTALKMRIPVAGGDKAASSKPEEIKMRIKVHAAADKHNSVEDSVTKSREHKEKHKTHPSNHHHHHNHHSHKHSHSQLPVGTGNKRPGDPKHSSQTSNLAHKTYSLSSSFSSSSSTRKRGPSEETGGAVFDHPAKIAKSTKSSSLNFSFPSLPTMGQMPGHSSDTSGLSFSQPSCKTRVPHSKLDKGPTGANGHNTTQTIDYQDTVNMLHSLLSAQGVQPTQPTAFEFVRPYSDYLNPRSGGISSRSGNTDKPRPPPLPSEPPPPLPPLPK
In short: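 Full-length His-tagged human CDK9/CycT1 (insect cell, ~0.5 μg/mL) preincubated 15 min at 22 °C with compound in Tris pH 8.0, MgCl2, DTT buffer before reaction with biotinylated peptide substrate at high ATP (2 mM).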

[2] = tested on: CAL-120, human breast adenocarcinoma cells; test: Proliferation assay CAL-120 (crystal violet, 4 days); assay type: cell-based; settings: Homo sapiens, CAL-120, 96 h, CAL-120 cells, median, read-out: Prolif-CAL-120, IC50-[mol/l] (median)
In short: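 IC50 from a 4-parameter fit of crystal violet absorbance (595 nm), scaled between the day-of-dosing plate (0%) and vehicle cells (100%). MDA-MB-231 or CAL-120 cells were treated for 4 days with 0.01–10 micromol/L compound in 0.1% DMSO after 24 h attachment.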

IC50 [1]: 2.8 nM | IC50 (CDK9/CycT1): > 6250 nM | IC50 [2]: 3.01 nM
SMILES: CN(CC(C)(C)O)c1nc(NCc2nc3c(F)c(F)ccc3[nH]2)n2ncc(C3CC3)c2n1 [Example 292, 1-[(8-cyclopropyl-4-{[(4,5-difluoro-1H-benzimidazol-2-yl)methyl]amino}pyrazolo[1,5-a][1,3,5]triazin-2-yl)(methyl)amino]-2-methylpropan-2-ol]

IC50 [1]: 3.42 nM | IC50 (CDK9/CycT1): > 20000 nM | IC50 [2]: 8.13 nM
SMILES: CN1CCN(c2nc(NCc3nc4cc(F)c(F)cc4[nH]3)n3ncc(C4CC4)c3n2)CC1 [Example 311, 8-cyclopropyl-N-[(5,6-difluoro-1H-benzimidazol-2-yl)methyl]-2-(4-methylpiperazin-1-yl)pyrazolo[1,5-a][1,3,5]triazin-4-amine]

IC50 [1]: 6.94 nM | IC50 (CDK9/CycT1): > 20000 nM | IC50 [2]: 7.21 nM
SMILES: CN(CC(C)(C)O)c1nc(NCc2nc3cc(Cl)c(Cl)cc3[nH]2)n2ncc(C3CC3)c2n1 [Example 306, 1-[(8-cyclopropyl-4-{[(5,6-dichloro-1H-benzimidazol-2-yl)methyl]amino}pyrazolo[1,5-a][1,3,5]triazin-2-yl)(methyl)amino]-2-methylpropan-2-ol]

IC50 [1]: 2.04 nM | IC50 (CDK9/CycT1): > 20000 nM | IC50 [2]: 2.32 nM
SMILES: Cc1cc2nc(CNc3nc(N4CCN(C)CC4)nc4c(C5CC5)cnn34)[nH]c2cc1C [Example 312, 8-cyclopropyl-N-[(5,6-dimethyl-1H-benzimidazol-2-yl)methyl]-2-(4-methylpiperazin-1-yl)pyrazolo[1,5-a][1,3,5]triazin-4-amine]

IC50 [1]: 10.6 nM | IC50 (CDK9/CycT1): > 20000 nM | IC50 [2]: 20.8 nM
SMILES: Fc1ccc2[nH]c(CNc3nc(N4CCOCC4)nc4c(C5CC5(F)F)cnn34)nc2c1 (racemic) [Example 286, 8-[(1RS)-2,2-difluorocyclopropyl]-N-[(5-fluoro-1H-benzimidazol-2-yl)methyl]-2-(morpholin-4-yl)pyrazolo[1,5-a][1,3,5]triazin-4-amine]

IC50 [1]: 8.07 nM | IC50 (CDK9/CycT1): > 20000 nM | IC50 [2]: 4.6 nM
SMILES: Fc1cc2nc(CNc3nc(N4CCOCC4)nc4c(C5CC5)cnn34)[nH]c2cc1Cl [Example 307, N-[(6-chloro-5-fluoro-1H-benzimidazol-2-yl)methyl]-8-cyclopropyl-2-(morpholin-4-yl)pyrazolo[1,5-a][1,3,5]triazin-4-amine]

IC50 [1]: 3.89 nM | IC50 (CDK9/CycT1): > 20000 nM | IC50 [2]: 7.54 nM
SMILES: Fc1ccc2[nH]c(CNc3nc(N4CCOCC4)nc4c(C5CC5(F)F)cnn34)nc2c1F (stereo not drawn) [Example 278, N-[(4,5-difluoro-1H-benzimidazol-2-yl)methyl]-8-(2,2-difluorocyclopropyl)-2-(morpholin-4-yl)pyrazolo[1,5-a][1,3,5]triazin-4-amine]

Continued, molecule first:

SMILES: N[C@H]1CCN(c2nc(NCc3nc4ccccc4[nH]3)n3ncc(Br)c3n2)C1 [Example 245, 2-[(3S)-3-aminopyrrolidin-1-yl]-N-[(1H-benzimidazol-2-yl)methyl]-8-bromopyrazolo[1,5-a][1,3,5]triazin-4-amine]
IC50 [1]: 7.35 nM | IC50 (CDK9/CycT1): > 20000 nM | IC50 [2]: 3.1 nM

SMILES: Brc1cnn2c(NCc3nc4ccccc4[nH]3)nc(N3C[C@H]4C[C@@H]3CN4)nc12 [Example 269, N-[(1H-benzimidazol-2-yl)methyl]-8-bromo-2-[(1R,4R)-2,5-diazabicyclo[2.2.1]heptan-2-yl]pyrazolo[1,5-a][1,3,5]triazin-4-amine]
IC50 [1]: 8.39 nM | IC50 (CDK9/CycT1): > 20000 nM | IC50 [2]: 7.31 nM

SMILES: Fc1ccc2[nH]c(CNc3nc(N4CCOCC4)nc4c(Br)cnn34)nc2c1F [Example 25, 8-bromo-N-[(4,5-difluoro-1H-benzimidazol-2-yl)methyl]-2-(morpholin-4-yl)pyrazolo[1,5-a][1,3,5]triazin-4-amine]
IC50 [1]: 3.01 nM | IC50 (CDK9/CycT1): 5780 nM | IC50 [2]: 2.62 nM

SMILES: c1ccc2[nH]c(CNc3nc(N4C[C@@H]5C[C@H]4CO5)nc4c(C5CC5)cnn34)nc2c1 [Example 254, N-[(1H-benzimidazol-2-yl)methyl]-8-cyclopropyl-2-[(1S,4S)-2-oxa-5-azabicyclo[2.2.1]heptan-5-yl]pyrazolo[1,5-a][1,3,5]triazin-4-amine]
IC50 [1]: 60.5 nM | IC50 (CDK9/CycT1): > 20000 nM | IC50 [2]: 87.7 nM

SMILES: COc1ccc2[nH]c(CNc3nc(N4CCOCC4)nc4c(C(F)(F)F)cnn34)nc2c1 [Example 257, N-[(5-methoxy-1H-benzimidazol-2-yl)methyl]-2-(morpholin-4-yl)-8-(trifluoromethyl)pyrazolo[1,5-a][1,3,5]triazin-4-amine]
IC50 [1]: 6.97 nM | IC50 (CDK9/CycT1): > 20000 nM | IC50 [2]: 10.8 nM

SMILES: Fc1ccc2[nH]c(CNc3nc(N4CCOCC4)nc4c(C(F)(F)F)cnn34)nc2c1 [Example 273, N-[(5-fluoro-1H-benzimidazol-2-yl)methyl]-2-(morpholin-4-yl)-8-(trifluoromethyl)pyrazolo[1,5-a][1,3,5]triazin-4-amine]
IC50 [1]: 1.95 nM | IC50 (CDK9/CycT1): > 20000 nM | IC50 [2]: 4.49 nM

SMILES: N[C@@H]1CN(c2nc(NCc3nc4ccccc4[nH]3)n3ncc(Br)c3n2)CC12CC2 [Example 251, 2-[(7S)-7-amino-5-azaspiro[2.4]heptan-5-yl]-N-[(1H-benzimidazol-2-yl)methyl]-8-bromopyrazolo[1,5-a][1,3,5]triazin-4-amine]
IC50 [1]: 1.49 nM | IC50 (CDK9/CycT1): > 20000 nM | IC50 [2]: 6.6 nM

SMILES: CN1CCN(c2nc(NCc3nc4ccccc4[nH]3)n3ncc(C4CC4)c3n2)CC1 [Example 246, N-[(1H-benzimidazol-2-yl)methyl]-8-cyclopropyl-2-(4-methylpiperazin-1-yl)pyrazolo[1,5-a][1,3,5]triazin-4-amine]
IC50 [1]: 10.3 nM | IC50 (CDK9/CycT1): > 20000 nM | IC50 [2]: 12.1 nM

SMILES: N[C@H]1[C@@H]2C[C@H]1CN(c1nc(NCc3nc4ccccc4[nH]3)n3ncc(Br)c3n1)C2 [Example 288, 2-[(1R,5S,6r)-6-amino-3-azabicyclo[3.1.1]heptan-3-yl]-N-[(1H-benzimidazol-2-yl)methyl]-8-bromopyrazolo[1,5-a][1,3,5]triazin-4-amine]
IC50 [1]: 2.69 nM | IC50 (CDK9/CycT1): > 20000 nM | IC50 [2]: 1.8 nM

SMILES: Fc1ccc2[nH]c(CNc3nc(N4CCOCC4)nc4c(C5CCC5)cnn34)nc2c1F [Example 264, 8-cyclobutyl-N-[(4,5-difluoro-1H-benzimidazol-2-yl)methyl]-2-(morpholin-4-yl)pyrazolo[1,5-a][1,3,5]triazin-4-amine]
IC50 [1]: 6.32 nM | IC50 (CDK9/CycT1): > 20000 nM | IC50 [2]: 8.7 nM

SMILES: CN[C@H]1CCN(c2nc(NCc3nc4ccccc4[nH]3)n3ncc(Br)c3n2)C1 [Example 252, N-[(1H-benzimidazol-2-yl)methyl]-8-bromo-2-[(3S)-3-(methylamino)pyrrolidin-1-yl]pyrazolo[1,5-a][1,3,5]triazin-4-amine]
IC50 [1]: 10.2 nM | IC50 (CDK9/CycT1): > 20000 nM | IC50 [2]: 38.7 nM

SMILES: C[C@@H]1CN(c2nc(NCc3nc4ccccc4[nH]3)n3ncc(C4CC4)c3n2)C[C@H](C)N1 [Example 248, N-[(1H-benzimidazol-2-yl)methyl]-8-cyclopropyl-2-[(3R,5S)-3,5-dimethylpiperazin-1-yl]pyrazolo[1,5-a][1,3,5]triazin-4-amine]
IC50 [1]: 1.6 nM | IC50 (CDK9/CycT1): > 20000 nM | IC50 [2]: 3.13 nM

SMILES: CN[C@@H]1CCN(c2nc(NCc3nc4ccccc4[nH]3)n3ncc(Br)c3n2)C1 [Example 253, N-[(1H-benzimidazol-2-yl)methyl]-8-bromo-2-[(3R)-3-(methylamino)pyrrolidin-1-yl]pyrazolo[1,5-a][1,3,5]triazin-4-amine]
IC50 [1]: 20.8 nM | IC50 (CDK9/CycT1): > 20000 nM | IC50 [2]: 6.91 nM
